For the assay, the target named is T1, Interstitial collagenase (Homo sapiens, UniProt P03956).
T1 sequence (P03956 whole entry): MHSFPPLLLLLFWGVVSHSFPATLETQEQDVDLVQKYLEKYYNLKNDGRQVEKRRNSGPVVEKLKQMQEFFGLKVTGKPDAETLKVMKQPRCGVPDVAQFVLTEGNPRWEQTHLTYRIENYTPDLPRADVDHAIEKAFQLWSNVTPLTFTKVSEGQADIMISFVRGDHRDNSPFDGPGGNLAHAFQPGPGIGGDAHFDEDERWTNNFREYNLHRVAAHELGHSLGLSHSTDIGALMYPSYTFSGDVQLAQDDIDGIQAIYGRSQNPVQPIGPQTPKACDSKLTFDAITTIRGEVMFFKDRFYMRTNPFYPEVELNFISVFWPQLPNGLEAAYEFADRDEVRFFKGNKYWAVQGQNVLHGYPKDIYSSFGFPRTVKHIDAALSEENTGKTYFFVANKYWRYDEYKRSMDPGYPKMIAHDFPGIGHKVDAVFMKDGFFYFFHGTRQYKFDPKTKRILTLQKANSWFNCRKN
Nature of the assay: Inhibitory activity against Matrix Metallo Proteinase-1 (MMP-1).

As to `CNC(=O)[C@H](Cc1ccccc1)NC(=O)[C@H](CC(C)C)N[C@H](CCN1C(=O)c2cc3ccccc3cc2C1=O)C(=O)O`, the IC50 (commonly the point on the concentration scale where inhibition reaches its midpoint) came out at 0.034 µM.

As for `CNC(=O)[C@H](Cc1ccc(OC)cc1)NC(=O)[C@H](CC(C)C)C[C@@H](CCN1C(=O)c2cc3ccccc3cc2C1=O)C(=O)O`, the midpoint of inhibition, the IC50, lay at 0.023 µM.

`CNC(=O)[C@H](Cc1ccc(OC)cc1)NC(=O)[C@H](CC(C)C)N[C@H](CCN1C(=O)c2cc3ccccc3cc2C1=O)C(=O)O` yielded an IC50 of 0.023 µM.

For the compound `CCCOc1ccc2c(c1)C(=O)N(CCC(CC1(C(=O)N[C@@H](Cc3ccc(OC)cc3)C(=O)NC)CCCCC1)C(=O)O)C2=O` (mixture of isomers), the IC50 came to 0.14 µM. This IC50 lies about 6.1-fold higher than the previous one. Next, `CNC(=O)[C@H](Cc1ccc(OC)cc1)NC(=O)C1(CC(CCN2C(=O)c3ccc(OC)cc3C2=O)C(=O)O)CCCCC1` (mixture of isomers): 0.57 µM.

Consider `CNC(=O)[C@H](Cc1ccc(OC)cc1)NC(=O)C1(CC(CCN2C(=O)c3ccccc3C2=O)C(=O)O)CCCCC1` (mixture of isomers), for which the IC50 worked out at 3.2 µM.

The compound `CCC(CC1(C(=O)N[C@@H](Cc2ccc(OC)cc2)C(=O)NC)CCCCC1)C(=O)O` (mixture of isomers) returned an IC50 greater than 30 µM. Next, `O=C(O)C(CCN1C(=O)c2cc3ccccc3cc2C1=O)CC1(C(=O)NCCN2CCOCC2)CCCCC1` (racemic): 12 µM; `O=C(O)C(CCN1C(=O)c2cc3ccccc3cc2C1=O)CC1(C(=O)NCc2ccccc2)CCCCC1` (racemic): 3 µM; `CNC(=O)[C@H](Cc1ccc(OC)cc1)NC(=O)C1(NC(CCN2C(=O)c3cc4ccccc4cc3C2=O)C(=O)O)CCCCC1` (stereo in doubt; form 1): 0.97 µM. Next, `CNC(=O)[C@H](Cc1ccc(OC)cc1)NC(=O)C1(CC(CCN2C(=O)c3cc4ccccc4cc3C2=O)C(=O)O)CCCC1` (stereo in doubt; form 1): 0.94 µM; `CNC(=O)[C@H](Cc1ccc(OC)cc1)NC(=O)C1(CC(CCN2C(=O)c3cc4ccccc4cc3C2=O)C(=O)O)CCCCC1` (stereo in doubt; form 1): 0.038 µM; `CNC(=O)[C@H](Cc1ccc(OC)cc1)NC(=O)C1(NC(CCN2C(=O)c3cc4ccccc4cc3C2=O)C(=O)O)CCCCC1` (stereo in doubt; form 2): 0.09 µM. The figure for `CNC(=O)[C@H](Cc1ccc(OC)cc1)NC(=O)C1(CC(CCN2C(=O)c3cc4ccccc4cc3C2=O)C(=O)O)CCCC1` (stereo in doubt; form 2) is 0.26 µM.

In turn, `CNC(=O)[C@H](Cc1ccc(OC)cc1)NC(=O)C1(CC(CCN2C(=O)c3cc4ccccc4cc3C2=O)C(=O)O)CCCCC1` (stereo in doubt; form 2) gave an IC50 of 0.14 µM.
